Assays:
[1] = system: human breast cancer cell line SK-BR-3; assay: Cell growth inhibition assay (MTT), SK-BR-3; format: cell-based; conditions: SK-BR-3 cells, 72 hours, read-out: GI50 value (50% growth inhibitory concentration)
Method: (§1) A cell growth inhibition assay was performed using two types of cells (human breast cancer cell line SK-BR-3 and human lung cancer cell line NCI-H460).
(§2) Cells of each type were suspended in a medium and seeded into a 96-well multi-well plate at 2000 cells/150 μL/well in the case of SK-BR-3 and at 500 cells/150 μL/well in the case of NCI-H460. Compound (I) was dissolved in DMSO, and this was diluted with medium to prepare a sample solution (DMSO concentration: 0.5% or less). On the day following the seeding, 50 μL of DMSO-containing medium to which the test compound was not added (hereinafter called DMSO diluted solution; DMSO concentration: 0.5% or less) or 50 μL of the sample solution was further added to the cells. An MTT assay was performed immediately after and 72 hours after adding the sample solution or the DMSO diluted solution to the cells. The MTT assay was performed as follows.
(§3) 5 mg/mL of an MTT (3-(4,5-dimethylthiazol-2-yl)-2,5-diphenyltetrazolium bromide) solution was added at 20 μL per well. Thereafter, the plate was incubated at 37° C. in 5% CO2 for four hours. The plate was centrifuged at 1200 rpm for five minutes, and then the culture supernatant was removed by suction using a dispenser. DMSO was added at 150 μL per well, and the generated formazan was dissolved. […] The absorbance of each well was measured using a plate reader at an OD of 540 nm with a reference of 660 nm. […]

[2] = system: human lung cancer cell line NCI-H460; assay: Cell growth inhibition assay (MTT), NCI-H460; format: cell-based; conditions: NCI-H460 cells, 72 hours, read-out: GI50 value (50% growth inhibitory concentration)
Method: as §1, §2, §3

GI50 [1]: 0.013 µM
GI50 [2]: 0.026 µM
SMILES: CNC(=O)CC1=Cc2nn(Cc3ncc(C)c(OC)c3Cl)c3nc(N)nc(c23)SC1 [Compound (1), 2-{4-amino-2-[(3-chloro-4-methoxy-5-methylpyridin-2-yl)methyl]-2,7-dihydro-6-thia-1,2,3,5-tetraazabenzo[cd]azulen-8-yl}-N-methylacetamide]

— patent US8846703B2, “Crystal of a free tricyclic pyrazolopyrimidine derivative” (Daiichi Sankyo Company, Limited, priority 2010, dated 2014)
